Results as given in ChEMBL document CHEMBL1201862, “PubChem BioAssay data set” (2004).
Activity calls are given as the source filed them.

Assays:
[1] = biological target: T1, Corticotropin-releasing factor receptor 2/Corticotropin-releasing factor-binding protein (Homo sapiens, UniProt P24387+Q13324); test: activators of CRF receptor 2 with binding protein – uHTS hits, confirmation (AID 602473); format: functional; conditions: read-out: EC50_Mean
T1 sequence (Q13324 whole entry): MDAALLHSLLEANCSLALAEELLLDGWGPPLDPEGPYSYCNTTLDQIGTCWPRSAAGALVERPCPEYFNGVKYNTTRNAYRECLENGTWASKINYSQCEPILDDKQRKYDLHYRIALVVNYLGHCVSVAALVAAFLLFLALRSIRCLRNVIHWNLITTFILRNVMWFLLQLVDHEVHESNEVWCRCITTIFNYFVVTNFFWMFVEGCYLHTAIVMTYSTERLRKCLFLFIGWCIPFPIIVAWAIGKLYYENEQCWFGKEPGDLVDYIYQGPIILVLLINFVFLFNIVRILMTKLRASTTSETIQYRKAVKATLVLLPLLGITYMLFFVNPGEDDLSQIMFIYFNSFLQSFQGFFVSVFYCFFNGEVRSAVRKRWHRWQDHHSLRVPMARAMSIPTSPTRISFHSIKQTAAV
T1 sequence (P24387 whole entry): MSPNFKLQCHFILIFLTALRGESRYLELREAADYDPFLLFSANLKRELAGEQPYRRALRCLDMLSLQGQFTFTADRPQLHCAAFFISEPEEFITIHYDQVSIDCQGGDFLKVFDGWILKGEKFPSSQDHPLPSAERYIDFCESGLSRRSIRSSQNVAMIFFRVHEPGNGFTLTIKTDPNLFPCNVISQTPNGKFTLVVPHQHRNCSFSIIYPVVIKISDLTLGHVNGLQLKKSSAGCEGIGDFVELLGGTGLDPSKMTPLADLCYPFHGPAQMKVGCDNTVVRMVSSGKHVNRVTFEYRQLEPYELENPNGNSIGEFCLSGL

[2] = biological target: T1, Corticotropin-releasing factor receptor 2/Corticotropin-releasing factor-binding protein; test: Dose Response confirmation of uHTS hits for small molecule antagonists of the CRF-binding protein and CRF-R2 receptor complex.; format: functional; conditions: read-out: IC50_Mean
[3] = CRF-BP/CRF-R2 complex antagonists, dose response, cell-based, uHTS hits, 384-well (AID 651639); format: functional, Homo sapiens; conditions: read-out: IC50_Mean
[4] = biological target: T2, Rac GTPase-activating protein 1 (Homo sapiens, UniProt Q9H0H5); test: MgcRacGAP GTPase-activating activity inhibitors, confirmation, biochemical, ADP Hunter fluorescence, primary and confirmatory (AID 624330); format: functional
T2 sequence (Q9H0H5 whole entry): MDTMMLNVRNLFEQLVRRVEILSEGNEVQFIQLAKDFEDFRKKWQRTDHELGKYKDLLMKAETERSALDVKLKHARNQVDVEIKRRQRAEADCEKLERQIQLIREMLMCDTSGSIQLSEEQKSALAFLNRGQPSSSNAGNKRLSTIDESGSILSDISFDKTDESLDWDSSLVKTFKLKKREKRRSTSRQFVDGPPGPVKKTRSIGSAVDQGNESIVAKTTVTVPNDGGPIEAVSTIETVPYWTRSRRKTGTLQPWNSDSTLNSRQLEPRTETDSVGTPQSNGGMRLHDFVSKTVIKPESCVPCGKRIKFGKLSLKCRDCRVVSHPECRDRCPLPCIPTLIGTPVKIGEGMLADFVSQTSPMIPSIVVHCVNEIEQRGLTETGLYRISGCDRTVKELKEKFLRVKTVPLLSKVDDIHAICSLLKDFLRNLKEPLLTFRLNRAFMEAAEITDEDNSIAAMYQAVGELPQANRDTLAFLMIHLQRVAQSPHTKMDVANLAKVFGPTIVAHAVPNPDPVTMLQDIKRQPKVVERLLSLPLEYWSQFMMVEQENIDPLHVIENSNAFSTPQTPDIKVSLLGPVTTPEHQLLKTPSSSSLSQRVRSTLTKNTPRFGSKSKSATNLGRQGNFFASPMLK

[5] = biological target: Fructose-bisphosphate aldolase (Mycobacterium tuberculosis, UniProt P9WQA3); test: Fluorescence-based biochemical high throughput dose response assay for inhibitors of the fructose-bisphosphate aldolase (FBA) of M. tuberculosis.; format: functional
Chain of Fructose-bisphosphate aldolase (P9WQA3 whole entry): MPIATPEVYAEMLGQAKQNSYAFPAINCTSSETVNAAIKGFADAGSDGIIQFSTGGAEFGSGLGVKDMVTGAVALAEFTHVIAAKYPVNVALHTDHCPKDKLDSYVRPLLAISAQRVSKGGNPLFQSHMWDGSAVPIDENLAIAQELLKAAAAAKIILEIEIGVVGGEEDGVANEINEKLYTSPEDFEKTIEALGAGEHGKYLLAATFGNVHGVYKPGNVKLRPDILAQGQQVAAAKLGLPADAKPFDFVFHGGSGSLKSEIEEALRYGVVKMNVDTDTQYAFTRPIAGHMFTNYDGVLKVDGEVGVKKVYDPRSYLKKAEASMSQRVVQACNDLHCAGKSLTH

[6] = miR-122 activators in hepatoma reporter cells, dose response, cell-based, Huh7 psiCHECK-miR122, Renilla luciferase, cherry-picked (AID 651956); format: functional;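 further: huh7 hepatoma cells stably carrying a psiCHECK-2 miR-122 sensor plasmid; renilla luciferase signal reporting endogenous miR-122 activity after 48 h compound exposure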
[7] = biological target: T3, Sentrin-specific protease 1 (Homo sapiens, UniProt Q9P0U3); test: Dose response confirmation of small molecule inhibitors of the catalytic domain of the SUMO protease, SENP1 in a FRET assay.; format: functional; conditions: read-out: IC50_Mean
T3 sequence (Q9P0U3 whole entry): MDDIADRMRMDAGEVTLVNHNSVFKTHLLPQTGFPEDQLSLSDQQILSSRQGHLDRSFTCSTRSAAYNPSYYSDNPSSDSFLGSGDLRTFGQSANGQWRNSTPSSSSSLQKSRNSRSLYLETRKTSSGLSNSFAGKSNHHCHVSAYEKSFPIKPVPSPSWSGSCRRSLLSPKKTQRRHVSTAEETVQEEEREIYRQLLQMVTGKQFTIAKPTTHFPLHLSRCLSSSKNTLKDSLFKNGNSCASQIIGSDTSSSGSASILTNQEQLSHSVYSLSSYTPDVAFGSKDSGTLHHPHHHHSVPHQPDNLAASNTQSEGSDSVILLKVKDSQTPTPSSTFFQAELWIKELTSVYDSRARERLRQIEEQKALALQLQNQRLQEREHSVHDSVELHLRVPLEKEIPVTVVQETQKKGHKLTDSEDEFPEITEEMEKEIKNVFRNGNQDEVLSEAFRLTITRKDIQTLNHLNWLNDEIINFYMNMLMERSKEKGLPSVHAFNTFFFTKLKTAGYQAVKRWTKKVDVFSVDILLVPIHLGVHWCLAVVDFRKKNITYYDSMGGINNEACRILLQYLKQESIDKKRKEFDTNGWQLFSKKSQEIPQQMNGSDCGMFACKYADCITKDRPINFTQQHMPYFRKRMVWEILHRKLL

[8] = biological target: T3, Sentrin-specific protease 1; test: potency of human SENP1 inhibitors, dose response, biochemical, kinetic FRET (AID 651697); format: functional; conditions: read-out: IC50_Mean
Genome polyprotein = Genome polyprotein (dengue virus type 2, UniProt P29990); test: Dengue-2 NS5 methyltransferase inhibitors, primary screen, biochemical, confirmation dose response (AID 588689); format: functional
Chain of Genome polyprotein (P29990 2492-3391 limits assumed): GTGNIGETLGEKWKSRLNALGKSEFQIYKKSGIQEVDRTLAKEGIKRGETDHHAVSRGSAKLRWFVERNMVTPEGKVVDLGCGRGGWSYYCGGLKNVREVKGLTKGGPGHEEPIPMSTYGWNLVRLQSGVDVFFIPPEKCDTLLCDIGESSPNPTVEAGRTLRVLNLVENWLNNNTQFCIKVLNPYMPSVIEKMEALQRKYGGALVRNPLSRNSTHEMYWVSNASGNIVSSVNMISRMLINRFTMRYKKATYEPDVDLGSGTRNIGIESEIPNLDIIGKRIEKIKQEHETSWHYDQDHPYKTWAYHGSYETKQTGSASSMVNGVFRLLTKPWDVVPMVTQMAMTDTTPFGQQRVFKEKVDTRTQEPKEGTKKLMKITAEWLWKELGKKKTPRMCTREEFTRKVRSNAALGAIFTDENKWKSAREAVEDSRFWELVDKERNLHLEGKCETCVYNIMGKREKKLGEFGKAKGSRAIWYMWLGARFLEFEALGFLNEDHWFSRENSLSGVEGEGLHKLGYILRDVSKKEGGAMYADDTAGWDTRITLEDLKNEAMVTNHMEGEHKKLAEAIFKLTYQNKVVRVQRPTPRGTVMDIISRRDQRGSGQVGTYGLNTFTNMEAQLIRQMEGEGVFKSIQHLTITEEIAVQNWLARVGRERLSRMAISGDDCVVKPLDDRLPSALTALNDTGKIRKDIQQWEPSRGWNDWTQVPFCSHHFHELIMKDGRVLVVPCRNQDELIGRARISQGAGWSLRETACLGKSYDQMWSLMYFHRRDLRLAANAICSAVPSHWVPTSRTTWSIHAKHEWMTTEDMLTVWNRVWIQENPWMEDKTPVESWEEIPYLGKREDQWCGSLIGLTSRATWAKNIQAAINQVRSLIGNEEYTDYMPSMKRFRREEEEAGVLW

[9] = biological target: T4, Long-chain-fatty-acid--AMP ligase FadD28 (Mycobacterium tuberculosis, UniProt P9WQ59); test: Fluorescence polarization aasay to screen for inhibitors that compete for the binding of FadD28 to a bisubstrate Measured in Biochemical System Using Plate Reader - 2147-01_Inhibitor_Dose_CherryPick_Activity.; format: functional, Mycobacterium tuberculosis H37Rv
T4 sequence (P9WQ59 whole entry): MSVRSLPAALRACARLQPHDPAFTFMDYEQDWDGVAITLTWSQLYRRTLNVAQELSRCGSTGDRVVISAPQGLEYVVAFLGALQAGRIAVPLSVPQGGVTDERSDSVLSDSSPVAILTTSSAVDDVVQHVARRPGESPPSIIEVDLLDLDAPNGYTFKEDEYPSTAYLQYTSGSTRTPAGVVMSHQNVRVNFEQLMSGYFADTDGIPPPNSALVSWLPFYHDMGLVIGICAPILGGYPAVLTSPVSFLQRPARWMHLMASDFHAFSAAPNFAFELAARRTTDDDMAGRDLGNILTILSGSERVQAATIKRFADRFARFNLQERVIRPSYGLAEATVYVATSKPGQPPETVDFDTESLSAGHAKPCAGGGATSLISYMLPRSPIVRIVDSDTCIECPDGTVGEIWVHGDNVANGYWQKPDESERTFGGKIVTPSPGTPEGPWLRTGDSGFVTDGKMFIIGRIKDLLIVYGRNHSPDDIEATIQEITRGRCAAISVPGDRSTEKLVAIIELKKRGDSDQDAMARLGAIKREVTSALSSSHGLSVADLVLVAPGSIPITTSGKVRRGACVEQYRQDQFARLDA

HEK293 = test: inhibitors of LMP1-driven NF-kB reporter, dose response, cell-based, HEK293, luciferase, cherry-pick (AID 588343); format: functional; conditions: Homo sapiens
[10] = biological target: T5, Nuclear receptor subfamily 0 group B member 1 (Homo sapiens, UniProt P51843); format: functional, cell-based;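 further: HEK293T cells transfected with SF-1 and DAX-1 plus StAR promoter luciferase reporter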
T5 sequence (P51843 whole entry): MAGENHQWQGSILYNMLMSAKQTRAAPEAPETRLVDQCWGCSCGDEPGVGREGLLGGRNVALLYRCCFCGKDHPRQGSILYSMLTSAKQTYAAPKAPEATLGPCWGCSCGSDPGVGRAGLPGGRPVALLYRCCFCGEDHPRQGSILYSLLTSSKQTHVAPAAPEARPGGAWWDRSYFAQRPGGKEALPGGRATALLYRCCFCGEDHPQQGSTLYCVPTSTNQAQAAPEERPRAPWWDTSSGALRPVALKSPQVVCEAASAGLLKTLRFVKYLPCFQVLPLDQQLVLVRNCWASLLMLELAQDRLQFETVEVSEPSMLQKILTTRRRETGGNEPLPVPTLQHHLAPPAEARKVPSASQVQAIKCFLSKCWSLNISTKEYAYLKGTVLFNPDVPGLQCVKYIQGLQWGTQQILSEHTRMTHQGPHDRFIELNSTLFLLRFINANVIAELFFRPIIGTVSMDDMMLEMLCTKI

cells = format: functional, cell-based

SMILES: CCOc1cc(/C=N/NC(=O)c2ccccc2OCc2ccc(F)cc2)ccc1O
- EC50 [1]: > 53 µM (inactive)
- IC50 [2]: 4.05 µM (active)
- IC50 [3]: > 20 µM (inactive)
- IC50 [4]: 78.5 µM (active)

SMILES: COc1ccc(NC(=O)C2(C)Cc3c(-c4ccc(N(C)C)cc4)ccnc3O2)cc1OC (stereo unspecified)
- IC50 [5]: 0.731 µM (active)

SMILES: CCCCN(CCCC)C(=O)CN(C)S(=O)(=O)c1ccc2c(c1)n(C)c(=O)c(=O)n2C
- AC50 [6]: 1.4 µM (active)

SMILES: COc1ccccc1NC(=O)CONC(=N)CC(=O)NC1CCCCC1
- IC50 [7]: 12.5 µM (active)
- IC50 [8]: 14.1 µM (active)

SMILES: C=CCOc1ccc(/C=C2\SC(=S)N(NS(=O)(=O)c3ccccc3)C2=O)cc1
- EC50 [1]: > 53 µM (inactive)
- IC50 (Genome polyprotein): 30.4 µM (active)
- IC50 [2]: 3.68 µM (active)
- IC50 [3]: 6.69 µM (active)
- AC50 [9]: > 100 µM (inactive)

SMILES: Cc1ccc(NC(=O)C(=O)Nc2ccccn2)cc1
- AC50 (HEK293): 2.59 µM (active)
- IC50 [10]: > 67.6 µM (inactive)
- IC50 (cells): > 67.6 µM (inactive)
